Experiments:
HL-60 [1] = assay: In vitro biological evaluation was determined on HL60 cell line, results expressed as percentage activity at 50% dose response; type: functional, Homo sapiens
Keratinocyte = assay: In vitro biological evaluation was determined on Keratinocytes, results expressed as percentage activity at 50% dose response; type: functional, Homo sapiens
MCF7 = assay: In vitro biological evaluation was determined on MCF-7 cell line, results expressed as percentage activity at 50% dose response; type: functional, Homo sapiens
Mus musculus = assay: In vivo calcemic effects was tested in vitamin D-replete normal NMRI mice by daily intraperitoneal injections of 1-alpha,25(OH)2D3; type: functional
[2] = target: T1, Vitamin D3 receptor (Sus scrofa domesticus) (UniProt Q7M3G7); assay: The affinity to the pig intestinal mucosa vitamin D receptor was evaluated in vitro, results expressed as percentage activity at 50% dose response; type: tissue-based
T1 sequence (whole entry): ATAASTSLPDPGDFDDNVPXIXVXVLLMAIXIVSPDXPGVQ

MG-63 = assay: In vitro biological evaluation was determined on MG-63 cell line, results expressed as percentage activity at 50% dose response; type: functional, Homo sapiens
HL-60 [3] = assay: In vitro biological evaluation was determined on HL60, results expressed as percentage activity at 50% dose response; type: functional, Homo sapiens

SMILES | Activity (HL-60 [1]) | Activity (Keratinocyte) | Activity (MCF7) | Activity (Mus musculus) | Activity [2] | Activity (MG-63) | Activity (HL-60 [3])
C=C1/C(=C\C=C\[C@@H]2CC[C@](C)(CCC#CC(C)(C)O)C2(C)C)C[C@@H](O)C[C@@H]1O | 100% | 400% | 150% | 0.1% | 9% | 50% | 
CC(C)(O)C#CCC[C@@]1(C)CC[C@@H](/C=C/C=C2C[C@@H](O)C[C@H](O)C2)C1(C)C | 60% | 85% | 70% | 0.25% | 60% |  | 
CC(C)(O)C(F)(F)C/C=C\[C@@]1(C)CC[C@@H](/C=C/C=C2C[C@@H](O)C[C@H](O)C2)C1(C)C | 20% | 60% | 10% | 0.5% | 70% |  | 
C=C1/C(=C\C=C2/CCC[C@]3(C)[C@@H]([C@H](C)CCCC(C)(C)O)CC[C@@H]23)C[C@@H](O)C[C@@H]1O [CALCITRIOL] | 100% | 100% | 100% | 100% | 100% | 100% | 
C=C1C(=CC=C[C@@H]2CC[C@](C)(CCCCC(O)(CC)CC)C2(C)C)C[C@@H](O)C[C@@H]1O | 100% | 90% | 250% | 5% | 80% | 200% | 
C=C1C(=CC=C[C@@H]2CC[C@](C)(CCCCC(O)(C(F)(F)F)C(F)(F)F)C2(C)C)C[C@@H](O)C[C@@H]1O | 150% | 750% | 1250% | 10% | 80% | 200% | 
CCC(O)(CC)CCCC[C@@]1(C)CC[C@@H](/C=C/C=C2C[C@@H](O)C[C@H](O)C2)C1(C)C | 85% | 40% | 100% | 0.25% | 75% | 80% | 
C=C1C(=CC=C[C@@H]2CC[C@](C)(/C=C\CCC(O)(C(F)(F)F)C(F)(F)F)C2(C)C)C[C@@H](O)C[C@@H]1O | 50% | 300% | 375% | 13% | 80% | 50% | 
CC(C)(O)CCCC[C@@]1(C)CC[C@@H](/C=C/C=C2C[C@@H](O)C[C@H](O)C2)C1(C)C | 9% | 10% | 30% | 0.25% | 40% | 40% | 
C=C1C(=CC=C[C@@H]2CC[C@](C)(/C=C\CC(F)(F)C(C)(C)O)C2(C)C)C[C@@H](O)C[C@@H]1O | 20% | 200% | 70% | <0.1% | 40% | 12% | 
C=C1C(=CC=C[C@@H]2CC[C@](C)(CCCCC(C)(C)O)C2(C)C)C[C@@H](O)C[C@@H]1O | 40% | 40% | 80% | <1% | 30% | 60% | 
C=C1C(=CC=C[C@@H]2CC[C@](C)(CCCC(F)(F)C(C)(C)O)C2(C)C)C[C@@H](O)C[C@@H]1O | 80% | 1350% | 90% | 3% | 75% | 50% | 
CC1(C)[C@H](/C=C/C=C2C[C@@H](O)C[C@H](O)C2)CC[C@]1(C)CCC#CC(O)(C(F)(F)F)C(F)(F)F |  | 4500% | 2000% | 1% | 100% |  | 300%
